# From the supplement of paper PMC10307832
# Experiments:
# Test in all cases: relative viability (nuclei count vs DMSO), 5 days (fraction); higher = more cells survive
# IU1-47 = compound: CC1=CC(=C(N1C2=CC=C(C=C2)Cl)C)C(=O)CN3CCCCC3 [IU1-47]
# In short: (§1)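 Viability here means nuclei in treated wells divided by nuclei in vehicle wells, reported as the median across plates. Only plates with control CV below 25% and at least one doubling passed. Lung cancer cell lines in 1536-well plates were exposed to five √10-spaced library-drug doses for 5 days and counted from 4× Hoechst images in MetaXpress.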
# FG-4592 = compound: Cc1nc(C(=O)NCC(=O)O)c(O)c2ccc(Oc3ccccc3)cc12 [FG-4592]
# In short: as §1
# IU1-47 + OSI-027 = compound: CC1=CC(=C(N1C2=CC=C(C=C2)Cl)C)C(=O)CN3CCCCC3 [IU1-47] + COc1cccc2cc(-c3nc([C@H]4CC[C@H](C(=O)O)CC4)n4ncnc(N)c34)[nH]c12 [OSI-027] (partner 0.5 µM)
# In short: (§2)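 Lung cancer cell lines in 1536-well plates got either a single drug or a fixed anchor-drug dose together with five library-drug doses (not always all listed) in √10 steps, by pin tool, on the day after seeding. Nuclei were counted after 5 days, and relative viability is the treated-to-vehicle ratio of nuclei counts. Values are medians of duplicate plates.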
# FG-4592 + Pemetrexed = compound: Cc1nc(C(=O)NCC(=O)O)c(O)c2ccc(Oc3ccccc3)cc12 [FG-4592] + Nc1nc2[nH]cc(CCc3ccc(C(=O)N[C@@H](CCC(=O)O)C(=O)O)cc3)c2c(=O)[nH]1 [Pemetrexed] (partner 0.2 µM)
# In short: as §2
Cell Line,relative viability (IU1-47; 0.08 µM),relative viability (IU1-47; 0.253 µM),relative viability (IU1-47; 0.8 µM),relative viability (IU1-47; 2.53 µM),relative viability (IU1-47; 8 µM),relative viability (FG-4592; 0.08 µM),relative viability (FG-4592; 0.253 µM),relative viability (FG-4592; 0.8 µM),relative viability (FG-4592; 2.53 µM),relative viability (FG-4592; 8 µM),relative viability (IU1-47 + OSI-027; first compound 0.08 µM),relative viability (IU1-47 + OSI-027; first compound 0.253 µM),relative viability (IU1-47 + OSI-027; first compound 0.8 µM),relative viability (IU1-47 + OSI-027; first compound 2.53 µM),relative viability (IU1-47 + OSI-027; first compound 8 µM),relative viability (FG-4592 + Pemetrexed; first compound 0.08 µM),relative viability (FG-4592 + Pemetrexed; first compound 0.253 µM),relative viability (FG-4592 + Pemetrexed; first compound 0.8 µM),relative viability (FG-4592 + Pemetrexed; first compound 2.53 µM),relative viability (FG-4592 + Pemetrexed; first compound 8 µM)
NCI-H358,1,0.912,0.981,0.89,0.848,1.02,0.835,1.16,0.896,0.989,0.889,1.15,1.04,0.676,0.82,0.169,0.165,0.164,0.176,0.179
NCI-H441,1.24,1.16,1.07,1.01,1.07,1.05,0.928,0.98,0.756,0.787,0.74,0.724,0.572,0.535,0.676,0.267,0.343,0.272,0.296,0.248
NCI-H460,1.04,0.987,1.08,0.955,1.01,0.965,0.947,1.03,1,1.02,0.795,0.737,0.835,0.822,0.505,0.0673,0.0639,0.058,0.0799,0.0618
NCI-H520,0.989,0.973,0.981,0.879,0.849,0.873,0.897,0.827,0.943,0.761,0.261,0.27,0.305,0.3,0.206,0.62,0.766,0.774,0.8,0.698
NCI-H522,0.959,0.975,1.01,0.82,0.874,0.958,0.947,0.761,0.992,0.823,0.751,0.592,0.56,0.572,0.619,1.11,0.878,–,0.728,0.869
NCI-H596,1.19,0.775,1.14,1.03,0.801,0.794,0.955,–,1.03,0.651,0.817,0.62,0.743,0.814,0.739,0.455,0.521,–,0.538,0.457
NCI-H647,1.07,1.05,0.843,0.985,0.923,0.916,0.94,0.837,0.933,0.727,0.744,0.605,–,0.7,0.478,0.165,0.14,0.211,0.161,0.15
NCI-H650,1.15,1.08,0.978,0.836,0.876,0.836,0.964,0.737,0.912,0.891,0.507,0.55,0.487,0.482,0.441,0.978,0.871,0.848,0.812,0.726
NCI-H661,1.09,1.07,1.12,0.929,1.07,0.926,0.942,1.11,0.903,0.972,0.81,0.753,0.63,0.799,0.647,0.904,0.903,0.944,0.894,1.02
NCI-H838,1.01,1.05,1.04,1.01,0.955,0.962,0.937,0.853,0.946,0.923,0.405,0.424,0.428,0.417,0.447,0.257,0.279,0.227,0.244,0.253
NCI-H1355,1.01,1.04,1.03,–,0.881,0.965,0.922,–,0.926,0.912,0.396,0.427,0.402,–,0.395,1.07,0.942,–,1.03,1.05
NCI-H1395,0.879,0.953,0.884,0.534,0.791,0.86,0.795,0.672,0.975,0.761,0.58,0.621,0.665,0.387,0.554,0.877,0.859,0.528,0.768,0.671
NCI-H1437,1.02,0.94,1.08,0.922,0.936,1,0.929,0.991,0.972,0.822,0.873,0.886,0.92,0.854,0.815,0.32,0.31,0.349,0.32,0.274
NCI-H1563,0.985,0.983,1.12,0.944,1.05,0.946,0.958,0.922,0.988,0.888,0.809,0.782,0.785,0.757,0.663,0.628,0.732,0.6,0.759,0.715
NCI-H1648,0.947,1.17,1.17,0.557,0.552,0.798,0.926,0.907,0.83,1.28,0.264,0.295,0.251,0.266,0.277,0.753,0.786,–,0.595,1.12
NCI-H1650,0.9,1.04,0.951,0.831,0.845,0.835,0.858,0.986,0.935,0.979,0.502,0.438,0.645,0.521,0.412,0.388,0.346,0.409,0.362,0.344
NCI-H1651,0.978,0.995,1.01,0.918,0.983,0.973,0.941,0.921,0.961,0.915,0.651,0.717,0.726,0.671,0.622,0.591,0.57,0.583,0.588,0.508

Cell Line,relative viability (IU1-47; 0.08 µM),relative viability (IU1-47; 0.253 µM),relative viability (IU1-47; 0.8 µM),relative viability (IU1-47; 2.53 µM),relative viability (IU1-47; 8 µM),relative viability (FG-4592; 0.08 µM),relative viability (FG-4592; 0.253 µM),relative viability (FG-4592; 0.8 µM),relative viability (FG-4592; 2.53 µM),relative viability (FG-4592; 8 µM),relative viability (IU1-47 + OSI-027; first compound 0.08 µM),relative viability (IU1-47 + OSI-027; first compound 0.253 µM),relative viability (IU1-47 + OSI-027; first compound 0.8 µM),relative viability (IU1-47 + OSI-027; first compound 2.53 µM),relative viability (IU1-47 + OSI-027; first compound 8 µM),relative viability (FG-4592 + Pemetrexed; first compound 0.08 µM),relative viability (FG-4592 + Pemetrexed; first compound 0.253 µM),relative viability (FG-4592 + Pemetrexed; first compound 0.8 µM),relative viability (FG-4592 + Pemetrexed; first compound 2.53 µM),relative viability (FG-4592 + Pemetrexed; first compound 8 µM)
NCI-H1666,0.953,1.02,0.968,0.957,1.01,0.979,0.939,0.953,0.913,0.901,0.914,0.86,0.901,0.879,0.817,0.771,0.836,0.932,0.834,0.722
NCI-H1734,1.06,1.07,0.981,–,0.99,0.824,0.939,0.717,0.808,0.876,0.703,0.659,0.662,–,0.565,0.407,0.408,0.419,0.422,0.397
NCI-H1755,1.11,1.11,1.09,1.04,0.958,0.958,0.941,0.916,1.02,1.03,0.759,0.876,0.777,0.729,0.686,0.417,0.483,0.46,0.4,0.453
NCI-H1792,0.847,0.796,0.889,0.862,0.486,0.763,0.725,0.693,0.861,0.868,0.816,0.771,0.879,0.566,0.691,0.691,0.76,–,0.619,0.651
NCI-H1793,0.859,0.83,1.04,–,0.864,0.569,0.812,–,0.745,0.762,0.245,0.25,0.37,–,0.286,–,0.95,–,0.833,0.782
NCI-H1915,0.995,0.989,1.04,–,0.905,0.951,0.959,0.918,0.955,1.02,0.614,0.626,0.599,–,0.581,0.469,0.44,0.542,0.475,0.477
NCI-H1944,1.1,1.02,0.947,0.902,0.852,0.932,0.872,0.685,0.954,0.852,0.401,0.357,0.411,0.444,0.376,0.608,0.703,0.567,0.602,0.606
NCI-H1975,0.963,0.943,1.06,0.968,0.842,1,0.881,0.9,0.839,0.861,0.69,0.817,0.779,0.94,0.531,0.27,0.293,0.292,0.268,0.307
NCI-H1993,0.927,1.07,0.856,0.974,0.914,0.987,0.925,0.64,0.827,0.78,0.492,0.586,0.498,0.498,0.567,0.644,0.48,–,0.487,0.594
NCI-H2009,1,1,1.02,0.842,1.04,1.03,0.958,1,0.902,0.953,0.662,0.672,0.676,0.558,0.593,1.01,1.16,1,1.02,1.06
NCI-H2023,0.951,0.949,1.06,0.851,1.27,0.919,0.866,0.857,0.922,0.88,0.375,0.391,0.436,0.259,0.352,0.228,0.198,0.244,0.232,0.217
NCI-H2085,1.05,0.998,0.973,1.01,0.954,1,0.955,0.934,0.965,1.02,0.724,0.748,0.872,0.531,0.729,0.934,0.769,0.81,0.863,1.07
NCI-H2087,1.04,1.01,1.06,0.924,1,0.98,0.988,1.32,1.01,1.13,0.834,0.582,0.506,–,0.531,0.604,0.565,0.658,–,0.591
NCI-H2126,1.09,1.02,1.1,0.698,0.957,0.969,0.906,0.82,0.846,0.901,0.729,0.883,0.673,0.539,0.649,0.701,0.583,0.656,0.609,0.696
NCI-H2170,1.24,1.15,1.07,0.996,1.04,0.911,0.975,0.851,0.921,0.718,0.865,0.725,0.645,0.722,0.727,0.235,0.308,0.256,0.266,0.252
NCI-H2228,1.04,1.14,1.06,0.986,0.709,0.905,0.868,0.899,1.02,0.644,0.619,0.581,0.662,0.368,0.39,0.368,0.302,0.434,0.331,0.32
